From US10273313B2, “Multimeric mannosides, a process for preparing the same and their uses as a drug” (CENTRE NATIONAL DE LA RECHERCHE SCIENTIFIQUE, priority 2012, dated 2019) come the findings set out here.

≈ marks a conversion by molar mass, not a printed value. Where two headings read alike, the source gives them in different places.

The test system of series [1] is type-1 piliated clinical E. coli isolate UTI89. Kind of series: Haemagglutination inhibition assay (HIA), guinea pig erythrocytes. The format is cell-based, Escherichia coli. The settings on record: read-out: Minimal inhibitory concentration (MIC) on haemagglutination. As for the experimental part: Haemagglutination is observed as the red blood cells being held in suspension through the formation of a space-filling cross-linked network with the fimbriated bacteria.
The UIT89 clinical isolate was grown statically 37° C. for 48 hours in LB medium and analysed for haemagglutination of guinea pig red blood cells. Both bacteria and red blood cells (RBCs) were washed 3 times in ice-cold PBS (17 mM K/NaH2PO4, 150 mM NaCl). PBS was used for all dilutions. 96-well round-bottom microtiter plates were used for the dilutions. The titer for agglutination was determined in a 2-fold dilution series in PBS of the bacteria in a volume of 25 μL. Well 1 is a negative control without bacteria but 25 μL PBS. 25 μL PBS and 50 μL 5% RBCs were added to a final 100 μL volume. Upon 1 hour at 4° C., the titer was determined as the lowest concentration of bacteria that led to haemagglutination.
A bacterial concentration of twice the determined haemagglutination titer was kept constant in the haemagglutination inhibition assays. First, a 2-fold dilution series of the inhibitory compounds was performed in 25 μL PBS. Instead, in well 1 only 25 μL PBS was added as a negative control. 25 μL of the bacterial solution and 50 μl of 5% red blood cells were added to reach a final volume of 100 μL.

Series [2] deals with T1, monovalent lectin domain of FimH (Escherichia coli, UniProt P08191).
T1 construct: with the monovalent lectin domain of FimH were measured using isothermal calorimetry (ITC)
T1 sequence (P08191 22-179): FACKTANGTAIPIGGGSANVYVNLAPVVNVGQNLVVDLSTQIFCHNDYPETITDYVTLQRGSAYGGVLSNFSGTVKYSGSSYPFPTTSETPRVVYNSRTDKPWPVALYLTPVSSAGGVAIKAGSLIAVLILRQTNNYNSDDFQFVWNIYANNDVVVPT
The format is binding. The settings on record: for Kd / Molar ratio n meas / ΔG° / ΔH° / ΔS°: direct titration; for Kd: read-out: Kd.

The test system of another series is bladder cell line 5637. Kind of series: Anti-adhesives for bacterial bladder cell binding. The format is cell-based. The conditions noted are these: ten-fold dilution series. As for the experimental part: The anti-adhesive capacities of the HM-derivatized cyclodextrins 1-4 were tested in vitro on the bladder cell line 5637, in a procedure analogous as previously described (Wellens, A. et al., PLoS ONE 3: e2040 (2008)). The CD conjugates 1-4 were diluted in a ten-fold series. The minimum inhibitory concentrations (MIC) indicate the concentrations of sugars at which we see some inhibition of binding of FimH to the bladder cells, they do however not indicate complete inhibition. MIC values for the CD-conjugates 1-4 followed a similar trend as the inhibitory concentrations recorded in HIA.
The anti-adhesive capacities of the n-heptyl α-D-mannoside-derivatized cyclodextrins 1-4 were tested in vitro on the bladder cell line 5637, in a procedure analogous to as described in (Wellens, A. et al., PLoS ONE 3: e2040 (2008)). The ligands have been diluted 10-fold and this is also the resolution limit of these tests.

The subject of series [3] is E. coli strain UTI89 in the bladder of C3H/HeN mice. Kind of series: In vivo inhibition in the murine cystitis model (instillation with UTI89). As for the experimental part: In vivo inhibition was evaluated by instilling 1-4 together with the UTI89 strain via a catheter in the bladder of C3H/HeN mice. […] A group of ten animals was used for each concentration of antagonists. […] The animals were sacrificed at a 6 h post infection time.
A murine model of urinary tract infection was used to test the ability of the compounds to inhibit the colonization of UTI89 in the bladder [Hung C. S.; Dodson, K. W., Hultgren S. J. Nat. Protoc. 2009, 4, 1230-1243 and Wellens A.; Garofalo C.; Nguyen H.; Van Gerven N.; Slättegård R.; Hernalsteens, J.-P.; Wyns, L.; Oscarson, S.; De Greve H.; Hultgren S. J.; Bouckaert, J. PLoS ONE 2008, 3, e2040]. The solution with high concentration of compounds was added to the resuspension of UTI89 before given to the mice. The eight-week old Female C3H/HeN mice (Harlan, Horst, The Netherlands) were anesthetized and infected via transurethral catheterization of 10^7 CFU UTI89 in solution in PBS, or in PBS with the compound in the mentioned concentration. The mice were sacrificed at 24 hours post infection and the bladders were harvested, homogenized and resuspended in PBS. The serial dilutions were spot on LB medium agar plates. The bacterial load was determined by counting the CFU recovered from the bladder. The animal experiments were approved by the Ethical Committer for Animal Experiments of Vrije Universiteit Brussel and complied with all relevant national legislation and institutional policies. The Mann-Whitney test was applied for the comparison of the data obtained from the untreated group and inhibition group in GraphPad Prism version 5.1 and two tailed P value were shown (GraphPad software).
A limited number of papers described the in vivo efficiency of anti-adhesive mannosides to treat UTIs.

Another series relates to UTI89 E. coli. The experiment in a line: Inhibition of haemagglutination (Example 19). The class given is cell-based, Escherichia coli. The conditions noted are these: two-fold dilution from 1 mM. As for the experimental part:
Interaction of E. coli FimH adhesins with the glycocalyx of guinea pig erythrocytes forms a cross-linked network into the wells. Glycoconjugates added in a two-fold dilution series prevents the agglutination reaction. The inhibition titer is defined as the lowest concentration of the glycoconjugate at which haemagglutination is still inhibited. UTI89 E. coli were grown statically overnight in LB at 37° C., washed three times in ice-cold phosphate-buffered saline and resolubilized. A two-fold dilution of glycoconjugates was prepared in 25 μL 20 mM HEPES pH 7.4 with 150 mM NaCl, starting from 1 mM as the highest concentration. The bacterial solution (25 μL) was added to the two-fold dilution series of the compound. Finally 50 μl of guinea pig red blood cells, washed in buffer and diluted to 5%, were added to a final 100 μL and left on ice for 30 min. before read-out. Due to serial dilutions, the maximal error is ±one well, or a factor two (FIG. 2).

For another series, the target named is T2, lectin domain of FimH (Escherichia coli, UniProt P08191).
T2 construct: The lectin domain of FimH was expressed as described previously and purified at pH 4.0; made in house
T2 sequence (P08191 22-179): as above
The experiment in a line: Surface plasmon resonance solution competition assay. The format is binding. The settings on record: solution affinity, inhibition of FimH binding to immobilized mannoside, CM5 chip. The procedure: The affinity of the compounds was first evaluated and then measured in a surface plasmon resonance solution competition assay. The lectin domain of FimH was expressed as described previously and purified at pH 4.0 in 50 mM HCOOH on a SPFF (sulfopropyl fast flow) ion exchange column (GE Healthcare). A CM5 sensor chip (Biacore, GE Healthcare) has been coated with a layer of amino-functionalized monovalent heptyl mannoside to 60 RU (response units) and the kinetics of FimH binding to the sensor chip has been determined. All data collection have been performed in HBS buffer complemented with 3 mM EDTA and 0.01% Tween20. Regeneration was done with a single 10 s injection of 100 mM NaOH in water.
The solution affinity provided by the Biacore software uses the equation (B−A−Kd)/2+(0.25*(A+B+Kd)^2−A*B)^0.5, with B presenting the uninhibited concentration of FimH, and A the variable compound concentration.

For series [4], the system named is AIEC LF82 strain adhesion to T84 intestinal epithelial cells. Kind of series: Adhesion assay on T84 cells, cells incubated 1 h with mannoside prior infection (Example 21.1). The format is cell-based, Escherichia coli. As for the experimental part: E. coli strain LF82 was isolated from a chronic ileal lesion of a patient with Crohn's disease (CD). Bacteria were grown routinely in Luria-Bertani (LB) broth overnight at 37° C. Intestinal epithelial cells T84 derived from colonic adenocarcinoma were maintained in an atmosphere containing 5% CO2 at 37° C. in DMEM/F12 (50/50) medium supplemented with 10% (v/v) heat-inactivated fetal calf serum (FCS), 1% L-glutamine, 100 000 U·l^−1 penicillin, 100 mg·l^−1 streptomycin, 25 μg·l^−1 amphotericin B.
T84 cells were seeded in 48-well tissue culture plates with 1.5×10^5 cells per well and grown for 48 h. Cells were incubated 1 h prior infection with each mannoside at a final concentration of 100; 10; 1 or 0.1 μM in complete medium without antibiotics, containing heat inactivated fetal calf serum (FCS) and were next infected with AIEC LF82 strain at a multiplicity of infection (MOI) of 10 bacteria per cell. After a 3 h incubation period at 37° C., the monolayers were washed in phosphate-buffered saline (PBS; pH 7.2). The epithelial cells were then lysed with 1% Triton X-100 in deionized water. Samples were diluted and plated onto Luria Bertani agar plates to determine the number of cfu recovered from the lysed monolayers.
Results were expressed in percentage of residual adhesion, considering adhesion level of AIEC LF82 without mannoside treatment as 100%.

Series [5] has as its system AIEC strain LF82 adhesion to T84 intestinal epithelial cells. The experiment in a line: Adhesion assay on T84 cells with thiazolylaminomannosides (Example 22.3). The class given is cell-based, Escherichia coli. The procedure: T84 Intestinal Epithelial cells (overexpressing the receptor CEACAM6) were beforehand incubated for 1 h with the synthetic thiazolylaminomannosides 6-20 (examples 3-17) at different concentrations. Each compound was tested four times at concentrations of 0.1, 1, 10 and 100 μM.
The cells were then infected in the presence of inhibitory compounds by the AIEC strain of reference LF82 for 3 hours at a multiplicity of infection of 10 bacteria to a cell. After 3 h of incubation, the monolayer was washed and the number of AIEC bacteria associated with cells was counted. The level of adhesion of AIEC LF82 strain in the presence of inhibitors (residual adhesion) was expressed relatively to the level of adherence in the absence of any treatment (considered 100%) (FIG. 10).

The test system of series [6] is primary human peripheral venous blood monocyte-derived macrophages. The experiment in a line: Macrophage-mediated phagocytosis of aged PMN cells. The class given is cell-based. The conditions noted are these: 500 nM. The source says: To estimate the influence of mannose-based inhibitors on possible inhibition of phagocytosis we used primary human peripheral venous blood monocyte-derived macrophages and estimated their ability to phagocyte autologous and allogenic human blood-derived PMN cells, as described by us previous (Bilyy, R. O. et al. (2012) J Biol Chem 287, 496-503).
Primary human PMN and MoMa from healthy volunteers were used. Monocytes were isolated from peripheral blood by LymphoPrep® gradient according to manufacture's recommendations for isolation of PBMC fraction. Plastic-attached cells of PBMC fraction were then cultured for 7 days in the presence of GM-CSF (100 U/ml) and autologous serum (added at days 1, 3 and 5) to generate MoMa. After 7 days of differentiation, the MoMa population was tested. They typically contain >95% CD11b+ cells, >90% CD14+ cells and >85% CD89+ cells. Phagocytosis was assessed by pre-incubation of PMN (freshly isolated or aged for 24 h) with mannose-based inhibitor for 30 min at 37° C. at Ringer buffer. Cells were thoroughly washed three times with Ringer solution and incubated with human MoMa for 2 hours. Uningested PMN were analyzed by flow cytometry (for this reason cells were pre-stained with CFSE (Rodel, F. et al. (2005) Strahlentherapie and Onkologie: Organ der Deutschen Rontgengesellschaft . . . [et al] 181, 456-462)) or in the hemocytometric chamber using Zeiss AxioImager A1 microscope. The percentage of prey cells that had been bound to or taken up by MoMa (% of phagocytosis) was calculated.

Setting [7] is: excluding spiky heat signals (2).

The Kd is the concentration at which binding is half-saturated. Turning to `OCC1OC(OCCCCCCCOCc2cn(CCOCCOCCOCc3cn(CC4OC5OC6C(CO)OC(OC7C(CO)OC(OC8C(CO)OC(OC9C(CO)OC(OC%10C(CO)OC(OC%11C(CO)OC(OC4C(O)C5O)C(O)C%11O)C(O)C%10O)C(O)C9O)C(O)C8O)C(O)C7O)C(O)C6O)nn3)nn2)C(O)C(O)C1O` (stereo not shown) [Compound 3], the MIC in series [1] (UTI89 1.2 10^9 CFU/ml) was 200 µM (≈ 341 µg/mL); in series [1] (UTI89 1.4 10^8 CFU/ml), 50 µM (≈ 85.3 µg/mL); in series [1] (UTI89 7 10^7 CFU/ml), 31 µM (≈ 52.9 µg/mL). The “Affinity of FimH for the ligand (in words)” value in series [2] (ITC) is “micromolar range”. For the same molecule, the Kd in [2] (data processed to exclude spiky heat signals (2)) is 1.95 µM; in [2] (data processed to include the whole binding event (1)), 4.57 µM. For the same molecule, the entries for the “Molar ratio n meas” value in [2] (setting [7]) and in [2] (whole binding event (1)) were 0.57 and 0.45, respectively. Moreover, the “ΔG°” value in series [2] (setting [7]) is -7.7 kcal/mol; in [2] (whole binding event (1)), -7.2 kcal/mol. Further, the entries for the “ΔH°” value in series [2] (setting [7]) and in series [2] (whole binding event (1)) were -4.8 kcal/mol and -10.0 kcal/mol, respectively. Further, the “ΔS°” value is on record as 9.9 cal/mol/deg in series [2] (setting [7]) and −9.6 cal/mol/deg in series [2] (whole binding event (1)). Further, the “MIC, anti-adhesive potency on bladder cell line 5637” value in the series on bladder cell line 5637 was >400 µM. Besides, in [3] (0.1 mM), the “Inhibition efficiency at decreased concentration” value is “important drop in the inhibition efficiency”. Also, in [3] (instillation of 1 mM with UTI89), the “Reduction of the level of infection” value is given as 10 fold.

With `COc1ccn([C@H]2OC(CO)[C@@H](O)C(O)C2O)c(=S)n1` (stereo partly drawn) [NM30, 1-(2,3,4,6-tetrahydroxy-α-D-mannopyranosyl)-4-methoxypyrimidine-2(1H)-(thi)one], in the series with UTI89 E. coli, the “Inhibitory potency in haemagglutination (FIG. 2)” value is “non-effectiveness”. For the same molecule, the Kd on lectin domain of FimH worked out at 0.92 µM.

With `Nc1ccn([C@H]2OC(CO)[C@@H](O)C(O)C2O)c(=S)n1` (stereo partly drawn) [NM34, 4-amino-1-(2,3,4,6-tetrahydroxy-α-D-mannopyranosyl)pyrimidine-2(1H)-(thi)one], the “Inhibitory potency in haemagglutination (FIG. 2)” value in the series on UTI89 E. coli was “non-effectiveness”. Binding at lectin domain of FimH was characterised by a dissociation constant (Kd) of 2.37 µM.

`O=C[C@@H](O)[C@@H](O)[C@H](O)[C@H](O)CO` [mannose, reference compound]: in series [4], the “Concentration reaching around 75% of binding inhibition (25% line)” value is 50000 µM. Besides, in series [5], the “Concentration necessary to achieve a similar percentage of residual adhesion (decrease greater than 95%)” value came to 100 mM. In addition, the “Decrease of adherence to intestinal epithelial cells” value in [5] (100 μM) was “about 25%”.

On to `CO[C@H]1O[C@H](CO)[C@@H](O)[C@H](O)[C@@H]1O` [αMM, α-D-methyl mannoside], for which the Phagocytosis rate entry in series [6] is reported as “significantly decreased phagocytosis rate”.
